Data published in patent US20230026840A1, “COMPOUND USED AS EGFR KINASE INHIBITOR AND USE THEREOF” (TYK MEDICINES, INC., priority 2019, published 2023).

Target: EGFR (L858R/T790M/C797S) kinase (Homo sapiens, UniProt P00533, C797S/L858R/T790M)
Experiment: Kinase activity assay against EGFR(L858R/T790M/C797S) kinase at ATP Km concentration (33P-ATP, filter-binding)
Type: biochemical
Settings: 10 concentrations, 20 min preincubation, 2 h reaction at room temperature
Method: The biological activity screening of the compounds will be determined repeatedly at 10 concentrations.
Each sample was prepared into a solution with a concentration of 10 mM. […]
a. Preparing basic buffer solution and quenching buffer solution for experimental kinase […]
b. Preparing compounds for experimental kinase
The test compound was dissolved in 100% dimethyl sulfoxide to a specific concentration. Integra Viaflo Assist was used to assist DMSO for (continuous) dilution.
Kinase was added to the newly prepared basic reaction buffer
Adding any desired cofactors to the substrate solution.
Acoustic technology (Echo 550; Nanoliter range) was used to feed the compounds in 100% of dimethyl sulfoxide into the kinase reaction mixture and incubated at room temperature for 20 minutes.
33P-ATP (specific activity 10 Ci/l) was added to the reaction mixture to start the reaction.
Incubated at room temperature for 2 hours
Radioactivity was detected by filter-binding method.
Kinase activity data was expressed as the percentage of remaining kinase activity in the test sample compared to the vehicle (dimethyl sulfoxide) reaction. Prism ([…] software) was used to obtain IC50 value and curve-fitting.

EGFR (L858R/T790M/C797S) kinase, sequence (P00533 25-1210 T790M/C797S/L858R): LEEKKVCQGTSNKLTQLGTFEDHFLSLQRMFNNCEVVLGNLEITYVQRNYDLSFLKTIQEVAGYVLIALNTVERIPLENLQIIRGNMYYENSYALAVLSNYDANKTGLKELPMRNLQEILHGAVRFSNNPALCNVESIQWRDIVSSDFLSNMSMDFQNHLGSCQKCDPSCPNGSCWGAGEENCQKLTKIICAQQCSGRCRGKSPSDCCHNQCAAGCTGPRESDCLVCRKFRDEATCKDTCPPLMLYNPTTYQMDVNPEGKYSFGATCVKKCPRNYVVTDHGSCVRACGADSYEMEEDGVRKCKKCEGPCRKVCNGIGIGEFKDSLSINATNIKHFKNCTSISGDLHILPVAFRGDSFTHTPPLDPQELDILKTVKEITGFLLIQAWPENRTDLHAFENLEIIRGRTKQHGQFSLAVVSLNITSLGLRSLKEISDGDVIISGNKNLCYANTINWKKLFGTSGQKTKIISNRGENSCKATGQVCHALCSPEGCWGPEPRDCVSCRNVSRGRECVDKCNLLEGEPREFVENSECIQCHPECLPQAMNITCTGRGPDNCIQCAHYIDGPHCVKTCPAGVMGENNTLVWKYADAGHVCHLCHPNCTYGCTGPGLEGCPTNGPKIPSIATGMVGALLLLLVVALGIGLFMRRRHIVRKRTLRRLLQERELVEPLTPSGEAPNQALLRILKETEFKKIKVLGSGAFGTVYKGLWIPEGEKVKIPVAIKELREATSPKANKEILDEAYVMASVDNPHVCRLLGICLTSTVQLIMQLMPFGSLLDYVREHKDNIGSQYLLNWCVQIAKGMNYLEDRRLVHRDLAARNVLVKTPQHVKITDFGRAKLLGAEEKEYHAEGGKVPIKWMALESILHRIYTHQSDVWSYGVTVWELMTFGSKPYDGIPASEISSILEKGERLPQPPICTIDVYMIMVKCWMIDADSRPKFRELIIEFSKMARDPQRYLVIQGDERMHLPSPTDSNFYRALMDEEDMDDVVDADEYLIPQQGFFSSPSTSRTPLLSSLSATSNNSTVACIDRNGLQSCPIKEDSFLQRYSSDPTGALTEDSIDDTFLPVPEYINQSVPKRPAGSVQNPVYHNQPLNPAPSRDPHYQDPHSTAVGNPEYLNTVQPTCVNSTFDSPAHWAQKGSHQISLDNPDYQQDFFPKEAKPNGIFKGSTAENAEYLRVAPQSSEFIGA

[2H]C(F)(F)Oc1cc(N2C[C@H]3CN(C)C[C@H]3C2)ccc1Nc1ncc(Cl)c(Nc2ccccc2P(C)(C)=O)n1 [Compound C1]
IC50: 12.4 nM

[2H]C(F)(F)Oc1cc(N2CC3CC(C2)N3)ccc1Nc1ncc(Cl)c(Nc2ccccc2P(C)(C)=O)n1 [Compound C2]
IC50: 16.6 nM

[2H]C(F)(F)Oc1cc(N2CC3CC(C2)N3C)ccc1Nc1ncc(Cl)c(Nc2ccccc2P(C)(C)=O)n1 [Compound C3]
IC50: 130 nM

[2H]C(F)(F)Oc1cc(N2C[C@H]3CNC[C@H]3C2)ccc1Nc1ncc(Cl)c(Nc2ccccc2P(C)(C)=O)n1 [Compound C4]
IC50: 107 nM

[2H]C(F)(F)Oc1cc(N2C3CC2CN(C)C3)ccc1Nc1ncc(Cl)c(Nc2ccccc2P(C)(C)=O)n1 [Compound C5]
IC50: 321 nM

[2H]C(F)(F)Oc1cc(N2CC3CCCNC3C2)ccc1Nc1ncc(Cl)c(Nc2ccccc2P(C)(C)=O)n1 (centres unmarked) [Compound C6]
IC50: 178 nM

[2H]C(F)(F)Oc1cc(-n2cc3c(n2)CNC3)ccc1Nc1ncc(Cl)c(Nc2ccccc2P(C)(C)=O)n1 [Compound C7]
IC50: 22.3 nM

[2H]C(F)(F)Oc1cc(-n2cc3c(n2)CN(C)C3)c(C)cc1Nc1ncc(Cl)c(Nc2ccccc2P(C)(C)=O)n1 [Compound C9]
IC50: 181 nM

[2H]C(F)(F)Oc1cc(-n2ncc3c2CN(C)C3)c(C)cc1Nc1ncc(Cl)c(Nc2ccccc2P(C)(C)=O)n1 [Compound C10]
IC50: 1850 nM

[2H]C(F)(F)Oc1cc(N2CC3CCN(C)C3C2)ccc1Nc1ncc(Cl)c(Nc2ccccc2P(C)(C)=O)n1 (centres unmarked) [Compound C11]
IC50: 17.6 nM

[2H]C(F)(F)Oc1cc(N2CC3CCNC3C2)ccc1Nc1ncc(Cl)c(Nc2ccccc2P(C)(C)=O)n1 (centres unmarked) [Compound C12]
IC50: 74.7 nM

[2H]C(F)(F)Oc1cc(N2C3CNCC2C3)ccc1Nc1ncc(Cl)c(Nc2ccccc2P(C)(C)=O)n1 [Compound C13]
IC50: 16.6 nM

[2H]C(F)(F)Oc1cc(-n2cc3c(n2)CN(C)C3)ccc1Nc1ncc(Cl)c(Nc2ccccc2P(C)(C)=O)n1 [Compound C14]
IC50: 13.7 nM

[2H]C(F)(F)Oc1cc(N2C[C@H]3COC[C@H]3C2)ccc1Nc1ncc(Cl)c(Nc2ccccc2P(C)(C)=O)n1 [Compound C20]
IC50: 69.6 nM

CCc1cc(Nc2ncc(Br)c(Nc3ccc4nccnc4c3P(C)(C)=O)n2)c(OC)cc1N1C[C@H]2CN(C)C[C@H]2C1 [Compound C22]
IC50: 0.3 nM

COc1cc2c(cc1Nc1ncc(Cl)c(Nc3ccccc3P(C)(C)=O)n1)CCCN2CCN1CCN(C)CC1 [Compound C23]
IC50: 20.5 nM

COc1cc2c(cc1Nc1ncc(Cl)c(Nc3ccccc3P(C)(C)=O)n1)CCCN2C(=O)CN1CCN(C)CC1 [Compound C24]
IC50: 19.5 nM

COc1cc2c(cc1Nc1ncc(Cl)c(Nc3ccccc3P(C)(C)=O)n1)CCCN2CC(=O)N1CCN(C)CC1 [Compound C25]
IC50: 803 nM

CCc1cc(Nc2nc(Nc3ccc4nccnc4c3P(C)(C)=O)c3ccccc3n2)c(OC)cc1N1C[C@H]2CN(C)C[C@H]2C1 [Compound C27]
IC50: 204 nM

CCc1cc(Nc2nc(Nc3ccc4nccnc4c3P(C)(C)=O)c3cccnc3n2)c(OC)cc1N1C[C@H]2CN(C)C[C@H]2C1 [Compound C28]
IC50: 803 nM
